Results taken from ChEMBL document CHEMBL4043286, “Exploiting the S4-S5 Specificity of Human Neutrophil Proteinase 3 to Improve the Potency of Peptidyl Di(chlorophenyl)-phosphonate Ester Inhibitors: A Kinetic and Molecular Modeling Analysis” (J Med Chem, 2018).
Activity calls are given as the source filed them. The rule behind the calls is not given here.

Target: T1, Neutrophil elastase (Homo sapiens) (UniProt P08246)
T1 sequence (whole entry): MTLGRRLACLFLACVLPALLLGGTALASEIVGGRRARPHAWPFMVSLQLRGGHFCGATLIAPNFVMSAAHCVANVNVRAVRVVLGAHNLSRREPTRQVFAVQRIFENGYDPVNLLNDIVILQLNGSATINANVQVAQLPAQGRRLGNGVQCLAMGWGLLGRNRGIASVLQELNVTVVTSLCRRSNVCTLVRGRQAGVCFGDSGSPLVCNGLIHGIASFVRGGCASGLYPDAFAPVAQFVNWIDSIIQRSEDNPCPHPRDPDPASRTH
Experiment: Inhibition of NE in cystic fibrosis patient sputum supernatant at 5 to 10 nM using ABZ-APEEIMRRQ-EDDnp as substrate after 20 mins by spectrophotometric method

CCCC(NC(=O)[C@H](CC(=O)O)NC(=O)[C@H](Cc1ccc(O)cc1)NC(=O)[C@@H](NC(=O)CCCC[C@@H]1SC[C@@H]2NC(=O)N[C@@H]21)C(C)C)P(=O)(Oc1ccc(Cl)cc1)Oc1ccc(Cl)cc1 (stereo partly specified)
inhibition: inactive
